In assay [1] the test system is P388. The assay can be described thus: In vivo antitumor activity against mouse P388 cells at 5 mg/kg relative to control. The format is functional.
For assay [2], the system named is P388. Description: In vivo antitumor activity against mouse P388 cells at 2 mg/kg relative to control. The format is functional.

Structures are written as SMILES.

Usually T/C stands for the ratio of treated to control. In turn, `CCOC(=O)CC1(O)C=CC(=O)C=C1` gave a T/C with P388 [1] of 120%.

Compound `COC(=O)CC1(O)C=CC(=O)C=C1` [JACARANONE] showed a T/C in the assay on P388 [2] of 165%.

Values taken from ChEMBL document CHEMBL1151351, “Antineoplastic Agents. 67. Senecio fendleri Gray” (1980).
